Patent US8530465B2, “1, 2-disubstituted amido-anthraquinone derivatives, preparation method and application thereof” (National Defense Medical Center, priority 2010, dated 2013)

Key:
MDA-MB-231/ATCC = test: NCI drug screen, MDA-MB-231/ATCC; format: cell-based, human; details: MDA-MB-231/ATCC (Breast Cancer); 1.00E−5 Molar
Method: (§1) In brief, cellular protein levels were determined after 48 hours of drug exposure by sulforhodamine B colorimetry. Through the use of a time 0 cell control, the cell growth can be determined for each cell line thus allowing calculations of the 50% growth inhibitory concentration (GI50), the total growth inhibition (TGI), and the 50% lethal concentration (LC50). Comparison to plates not exposed to drug permits determination of concentration and times of exposure conferring 50% net growth inhibition (GI50), TGI, and 50% cell kill (LC50).
(§2) The screening system in United State National Cancer Institute (NCI) is consisted of 60 kinds of different human cancer cells, which can be used to assay the growth-inhibiting ability or cell toxicity of a compound against various cancer and tumor at a certain concentration.

UACC-62 = test: NCI drug screen, UACC-62; format: cell-based, human; details: UACC-62 (Melanoma); 1.00E−5 Molar
Method: as §1, §2

[1] = test system: 60 kinds of different human cancer cells; test: NCI in vitro 60-cell Drug Screen, whole panel; format: cell-based
Method: as §1
From the data analysis it follows that approximately 95% of the actives (potent anticancer drugs) from the 60 cell line screen can be identified. By these criteria, five compounds (each with its certification number, refer to FIG. 4) of the invention were reported that having anticancer activity.
as §2

UO-31 = test: NCI drug screen, UO-31; format: cell-based, human; details: UO-31 (Renal Cancer); 1.00E−5 Molar
Method: as §1, §2

NCI/ADR-RES = test: NCI drug screen, NCI/ADR-RES; format: cell-based, human
Method: as §1, §2

BT-549 = test: NCI drug screen, BT-549; format: cell-based, human; details: BT-549 (Breast Cancer); 1.00E−5 Molar
Method: as §1, §2

HOP-62 = test: NCI drug screen, HOP-62; format: cell-based, human; details: HOP-62 (Non-Small Cell Lung Cancer); 1.00E−5 Molar
Method: as §1, §2

A549/ATCC = test: NCI drug screen, A549/ATCC; format: cell-based, human; details: A549/ATCC (Non-Small Cell Lung Cancer); 1.00E−5 Molar
Method: as §1, §2

CCRF-CEM = test: NCI drug screen, CCRF-CEM; format: cell-based, human; details: CCRF-CEM (Leukemia); 1.00E−5 Molar
Method: as §1, §2

HCC-2998 = test: NCI drug screen, HCC-2998; format: cell-based, human; details: HCC-2998 (Colon Cancer); 1.00E−5 Molar
Method: as §1, §2

MCF7 = test: NCI drug screen, MCF7; format: cell-based, human; details: MCF7 (Breast Cancer); 1.00E−5 Molar
Method: as §1, §2

SN12C = test: NCI drug screen, SN12C; format: cell-based, human; details: SN12C (Renal Cancer); 1.00E−5 Molar
Method: as §1, §2

HCT-116 = test: NCI drug screen, HCT-116; format: cell-based, human; details: HCT-116 (Colon Cancer); 1.00E−5 Molar
Method: as §1, §2

MDA-MB-468 = test: NCI drug screen, MDA-MB-468; format: cell-based, human; details: MDA-MB-468 (Breast Cancer); 1.00E−5 Molar
Method: as §1, §2

ACHN = test: NCI drug screen, ACHN; format: cell-based, human; details: ACHN (Renal Cancer); 1.00E−5 Molar
Method: as §1, §2

RXF 393 = test: NCI drug screen, RXF 393; format: cell-based, human; details: RXF 393 (Renal Cancer); 1.00E−5 Molar
Method: as §1, §2

HL-60(TB) = test: NCI drug screen, HL-60(TB); format: cell-based, human; details: HL-60(TB) (Leukemia); 1.00E−5 Molar
Method: as §1, §2

TK-10 = test: NCI drug screen, TK-10; format: cell-based, human; details: TK-10 (Renal Cancer); 1.00E−5 Molar
Method: as §1, §2

HS 578-T = test: NCI drug screen, HS 578-T; format: cell-based, human; details: HS 578-T (Breast Cancer); 1.00E−5 Molar
Method: as §1, §2

SW-620 = test: NCI drug screen, SW-620; format: cell-based, human; details: SW-620 (Colon Cancer); 1.00E−5 Molar
Method: as §1, §2

OVCAR-4 = test: NCI drug screen, OVCAR-4; format: cell-based, human; details: OVCAR-4 (Ovarian Cancer); 1.00E−5 Molar
Method: as §1, §2

COLO 205 = test: NCI drug screen, COLO 205; format: cell-based, human; details: COLO 205 (Colon Cancer); 1.00E−5 Molar
Method: as §1, §2

KM12 = test: NCI drug screen, KM12; format: cell-based, human; details: KM12 (Colon Cancer); 1.00E−5 Molar
Method: as §1, §2

NCI-H226 = test: NCI drug screen, NCI-H226; format: cell-based, human; details: NCI-H226 (Non-Small Cell Lung Cancer); 1.00E−5 Molar
Method: as §1, §2

HCT-15 = test: NCI drug screen, HCT-15; format: cell-based, human; details: HCT-15 (Colon Cancer); 1.00E−5 Molar
Method: as §1, §2

SK-OV-3 = test: NCI drug screen, SK-OV-3; format: cell-based, human; details: SK-OV-3 (Ovarian Cancer); 1.00E−5 Molar
Method: as §1, §2

SK-MEL-28 = test: NCI drug screen, SK-MEL-28; format: cell-based, human; details: SK-MEL-28 (Melanoma); 1.00E−5 Molar
Method: as §1, §2

MOLT-4 = test: NCI drug screen, MOLT-4; format: cell-based, human; details: MOLT-4 (Leukemia); 1.00E−5 Molar
Method: as §1, §2

OVCAR-5 = test: NCI drug screen, OVCAR-5; format: cell-based, human; details: OVCAR-5 (Ovarian Cancer); 1.00E−5 Molar
Method: as §1, §2

LOX IMVI = test: NCI drug screen, LOX IMVI; format: cell-based, human; details: LOX IMVI (Melanoma); 1.00E−5 Molar
Method: as §1, §2

NCI-H460 = test: NCI drug screen, NCI-H460; format: cell-based, human; details: NCI-H460 (Non-Small Cell Lung Cancer); 1.00E−5 Molar
Method: as §1, §2

NCI drug screen, A489 = format: cell-based, human; details: A489 (Renal Cancer); 1.00E−5 Molar
Method: as §1, §2

Q: For `Cc1ccc(C(=O)Nc2c(NC(=O)CN3CCN(C)CC3)ccc3c2C(=O)c2ccccc2C3=O)cc1` [CC-43, 1-(4-methylbenzamido)-2-[2-(4-methylpiperazino)acetylamino]-anthraquinone], which “Growth Percent” value (MDA-MB-231/ATCC) is on record?
A: 37.00%

Q: And the “Growth Percent” value (UACC-62)?
A: −20.65%

Q: And the GI50 ([1]; Homo sapiens, 60 cell, NCI screen, FIG. 6, cell line not stated, read-out: 50% net growth inhibition (GI50))?
A: 130 nM

Q: What about the “growth-inhibiting effect against cancer cells, by cancer type” value ([1]; NCI's screen, 1.00E−5 Molar) of the same compound?
A: could inhibit the cancer cell growth of leukemia, melanoma, and ovarian cancer

Q: What about the “Growth Percent, Mean” value ([1]; mean over tested cell lines, 1.00E−5 Molar) of the same compound?
A: 46.71%

Q: And the “Growth Percent” value (UO-31)?
A: 70.66%

Q: What about the “Growth Percent” value (NCI/ADR-RES; NCI/ADR-RES (Ovarian Cancer), 1.00E−5 Molar) of the same compound?
A: 66.74%

Q: What about the “drug-resistance against adriamycin (ADR)” value (NCI/ADR-RES; human multiple drug-resistant cell NCI/ADR-RES) of the same compound?
A: possessed drug-resistance against adriamycin (ADR)

Q: And the “Growth Percent” value (BT-549)?
A: 91.88%

Q: And the “Growth Percent” value (HOP-62)?
A: 75.21%

Q: What about the “Growth Percent” value (A549/ATCC) of the same compound?
A: 83.89%

Q: What about the “Growth Percent” value (CCRF-CEM) of the same compound?
A: 61.06%

Q: And the “Growth Percent” value (HCC-2998)?
A: 28.97%

Q: What about the “Growth Percent” value (MCF7) of the same compound?
A: 31.79%

Q: And the “Growth Percent” value (SN12C)?
A: 63.31%

Q: And the “Growth Percent” value (HCT-116)?
A: 8.37%

Q: What about the “Growth Percent” value (MDA-MB-468) of the same compound?
A: 7.43%

Q: And the “Growth Percent” value (ACHN)?
A: 49.87%

Q: What about the “Growth Percent” value (RXF 393) of the same compound?
A: 68.84%

Q: And the “Growth Percent” value (HL-60(TB))?
A: −8.54%

Q: And the “Growth Percent” value (TK-10)?
A: 101.93%

Q: What about the “Growth Percent” value (HS 578-T) of the same compound?
A: 87.29%

Q: And the “Growth Percent” value (SW-620)?
A: 39.17%

Q: What about the “Growth Percent” value (OVCAR-4) of the same compound?
A: 57.11%

Q: And the “Growth Percent” value (COLO 205)?
A: 2.29%

Q: What about the “Growth Percent” value (KM12) of the same compound?
A: 44.05%

Q: And the “Growth Percent” value (NCI-H226)?
A: 93.87%

Q: And the “Growth Percent” value (HCT-15)?
A: 27.47%

Q: What about the “Growth Percent” value (SK-OV-3) of the same compound?
A: 108.91%

Q: And the “Growth Percent” value (SK-MEL-28)?
A: −57.56%

Q: What about the “Growth Percent” value (MOLT-4) of the same compound?
A: 26.04%

Q: What about the “Growth Percent” value (OVCAR-5) of the same compound?
A: 106.66%

Q: And the “Growth Percent” value (LOX IMVI)?
A: 1.24%

Q: What about the “Growth Percent” value (NCI-H460) of the same compound?
A: 37.47%

Q: What about the “Growth Percent” value (NCI drug screen, A489) of the same compound?
A: 67.36%
